For series [1] the following is noted: cited from earlier work.
The next series deals with hepatic stellate cells. To be noted: cited from earlier work.
The nature of series [2]: In-vivo pharmacokinetics in plasma of rats. On the set-up: species or system Wistar rats. As for the experimental part:
Wistar rats (200±20 g) were divided into 2 groups, 6 each, half female and half male in each group, ate and drank freely. The first group was given compound 16c 3 mg·kg^−1 caudal-intravenously. The second group was orally administered disodium salt of compound 27 (39 mg·kg^−1). Blood (0.3 mL) was collected from retroorbital vein at time point 0 h, 0.08 h, 0.17 h, 0.33 h, 0.5 h, 0.75 h, 1 h, 1.5 h, 2 h, 3 h, 5 h, 7 h, placed into cold heparinized Eppendorf tubes. The samples were centrifuged at 4° C. (15000 rpm) for 5 min. Transfer 100 μL plasma sample to −80° C. freezer for test.
Quantitative LC-MS/MS analysis methods of compound 9c and prodrug 16c in plasma were set up, using diazepam and mildronate as internal standard, respectively. (Prodrug 27 was not detected under experimental condition from plasma) the plasma sample was tested and analyzed. (result see in Table 1 and FIG. 2)
Oral Bioavailability was calculated according to compound 16c in plasma. Area under concentration-time curve (AUC) of PO dosing was divided by AUC of iv dosing of same amount of drugs, expressed as absorption percentage: Bioavailability (F)=AUCpo·Miv/AUCiv·Mpo×100%. Wherein, Miv means the molar concentration of drugs by iv dosing, and Mpo means the molar concentration of drugs by PO dosing. The AUC0-t of compound 16c in plasma

Series [3] in a line: Concentration of compound 16c and 9c in liver after PO dosing of compound 27. Particulars: rat; for concentration at 0.25 h / concentration at 0.75 h / concentration at 8 h / concentration at 24 h: both sexes, Wistar, liver; for concentration at 0.25 h: 0.25 h after oral administration of compound 27 (39 mg/kg); for concentration at 0.75 h: 0.75 h after oral administration of compound 27 (39 mg/kg); for concentration at 8 h: 8 h after oral administration of compound 27 (39 mg/kg); for concentration at 24 h: 24 h after oral administration of compound 27 (39 mg/kg); for Conversion of prodrug in vivo: after PO dosing of compound 27. Type of series: in vivo, Wistar rats. The method, then:
16 Wistar rats (200±20 g) were divided into 4 groups randomly, female and male each half in each group, ate and drank freely before the experiment. After PO dosing of compound 27 (39 mg·kg^−1), rats were sacrificed at each time point 15 min, 45 min, 8 h, 24 h. Liver samples were collected, washed off blood and contents with saline, cut into small pieces, and stirred evenly. 1 g was weighed. 1 mL Methanol/water was added. After homogenated, additional 1 mL methanol/water was added. The mixture was sonicated for 15 seconds, centrifuged (4500 rpm) for 10 minutes. The upper clear solution was tested using LC-MS/MS method to give the concentration of compound 16c and 9c in liver at different time points after administration (table 2).

Series [4] has as its system BDL rats having liver fibrosis. Nature of the series: Bile Duct Ligation induced liver fibrosis model in rats. Type of series: in vivo, Wistar rats. The text has this:
This experiment used Bile Duct Ligation to induce liver fibrosis model in rats. Treatment of BDL rats with PO dosing prodrug 27 was studied.
Briefly, Wistar rats (200±20 g) were divided into 3 groups, half female and half male in each group:
SHAM group: 6 rats were anaesthetized, the abdominal skin was shaved and sterilized regularly, the common bile duct was exposed by an upper abdominal midline incision with sterile operation. Muscle and skins were sutured separately.
liver fibrosis MODEL group: 12 rats were anaesthetized, the abdominal skin was shaved and sterilized regularly, the common bile duct was exposed and ligated by an upper abdominal midline incision with sterile operation. Muscle and skins were sutured separately.
Dosing group: 12 rats were anaesthetized, the abdominal skin was shaved and sterilized regularly, the common bile duct was exposed and ligated by an upper abdominal midline incision with sterile operation. Muscle and skins were sutured separately. After operation, disodium salt of compound 27 (30 mg/kg) was dissolved in water and dosed orally to the rats once per day test indexes:
After 2 weeks, measure the ALT and AST of serium and liver homogenate
After 2 weeks, rats were sacrificed, and liver performed HE staining and Masson staining.

A further series addresses T1, human P4H enzyme (Homo sapiens, UniProt P13674).
T1 construct: made in house; host or cells: E. coli Origami2(DE3)
Nature of the series: P4H enzymatic activity, coupled succinyl CoA synthase / MLG phosphate assay. The series is classed as biochemical. Particulars: 50 nM P4H, 100 uM 2-oxoglutarate, 45 min at 25° C., n=2, FIG. 1. An excerpt:
Human recombinant P4H was expressed in E. coli. Briefly, DNA encoding the signal sequence of P4H was cloned into pET28_N-His_TEV, the resulting plasmid pET28_N-His_TEV_P4HA1/PDI was transferred to E. coli Origami2(DE3) to co-expressed. The enzyme obtained was purified with MonoQ ion-exchange column, TEV digested and confirmed by MS, passed through Histrap HP column, finally purified with Hiload16/60 superdex 200 column.
The measurement of the enzymatic activity of purified P4H zymoprotein and the assay of the influence of the compound to the enzymatic activity were performed at the following coupling enzymatic reaction system: 100 mM Tris (pH7.0), 0.1 mM (NH4)2Fe(SO4)2, 0.1 mM ascorbic acid, 0.2 mM CoA, 0.2 mM ATP, 0.5 uM succinyl CoA synthase, 100 uM 2-oxoglutarate, 100 uM (Pro-Pro-Gly)10peptide, 50 nM P4H enzyme, 50 ul total. After 45 min reaction at 25° C., 10 ul MLG R1 was added and reacted for 10 min, 10 ul MLG R2 was added and reacted for 20 min. P4H catalyst 2-oxoglutaric acid and polypeptide with coenzyme and suitable enzyme reaction environment to give product succinic acid. The product succinic acid then produced succinyl CoA and phosphoric acid with the action of succinyl CoA synthase. The level of generated phosphoric acid could be measured by MLG, which reflects the level of P4H. The generated green product (MG+)(H2PMo12O40) was measured at OD 630 nm. […]

Another series relates to myocardial infarction. Particulars: in vivo; cited from earlier work.
The mark [5] stands for this setting: both sexes, rat, compound 16c in plasma after compound 16c IV 3 mg/kg, Wistar rats.

Molecules are shown by their SMILES. pIC50: −log10 of the molar value.

T1 sequence (P13674 18-534): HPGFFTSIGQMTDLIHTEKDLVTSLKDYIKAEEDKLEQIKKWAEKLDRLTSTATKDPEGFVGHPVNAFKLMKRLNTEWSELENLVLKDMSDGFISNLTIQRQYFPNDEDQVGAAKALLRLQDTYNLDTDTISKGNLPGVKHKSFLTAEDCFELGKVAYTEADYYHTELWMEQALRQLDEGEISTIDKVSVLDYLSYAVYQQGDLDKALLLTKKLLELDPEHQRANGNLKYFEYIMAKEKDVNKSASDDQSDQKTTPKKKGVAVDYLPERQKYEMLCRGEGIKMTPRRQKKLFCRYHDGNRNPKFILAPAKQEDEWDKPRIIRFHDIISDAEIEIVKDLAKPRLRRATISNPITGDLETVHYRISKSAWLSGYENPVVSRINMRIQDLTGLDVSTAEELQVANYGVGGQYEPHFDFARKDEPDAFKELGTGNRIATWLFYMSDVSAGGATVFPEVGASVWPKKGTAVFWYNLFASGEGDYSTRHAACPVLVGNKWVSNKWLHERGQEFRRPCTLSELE
T1 sequence (P07237 18-508 partner): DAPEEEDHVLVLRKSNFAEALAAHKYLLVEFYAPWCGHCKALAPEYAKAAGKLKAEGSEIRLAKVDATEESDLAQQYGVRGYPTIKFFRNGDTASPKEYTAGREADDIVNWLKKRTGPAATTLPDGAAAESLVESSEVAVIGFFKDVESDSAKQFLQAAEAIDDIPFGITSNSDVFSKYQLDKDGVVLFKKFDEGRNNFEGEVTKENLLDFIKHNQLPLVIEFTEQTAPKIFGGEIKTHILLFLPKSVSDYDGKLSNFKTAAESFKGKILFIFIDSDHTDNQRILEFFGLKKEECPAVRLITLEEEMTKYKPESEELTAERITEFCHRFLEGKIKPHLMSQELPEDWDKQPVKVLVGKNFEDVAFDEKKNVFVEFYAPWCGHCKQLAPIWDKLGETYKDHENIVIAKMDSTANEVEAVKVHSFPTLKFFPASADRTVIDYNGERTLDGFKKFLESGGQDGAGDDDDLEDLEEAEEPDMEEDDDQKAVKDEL

In the case of `COCCNC(=O)c1ccnc(C(=O)NCCOC)c1` [HOE077], the “side effects in clinical trials” value in series [1] is recorded as “severe side effects (cataract)”. In addition, in the series with hepatic stellate cells, the “activation of hepatic stellate cells” value is listed as “inhibits”, the “expression of procollagen mRNA” value is on record as “inhibits”, the “hepatic stellate cells proliferation” value is “reduces” and the “synthesis of total protein of cell” value was “no effect”.
`O=P1(c2cnc3c(ccc4c(O)ccnc43)c2)OCC[C@@H](c2cccc(Cl)c2)O1` (stereo partly drawn) [Compound 16c, (4S)-4-(3-chlorophenyl)-2-(7-hydroxy-1,10-phenanthrolin-3-yl)-1,3,2-dioxaphosphinan-2-one]: in series [2] (after compound 16c 3 mg/kg intravenously), the AUC0-t of compound 16c in plasma worked out at 2060 ng·h/mL. In series [2] (setting [5]), the AUC(0-inf) (commonly the area under the concentration-time curve extrapolated to infinity) was 2140 ng·h/mL and the exposure AUC(0-t) (usually exposure summed from dosing to a finite time, without extrapolation to infinity) was determined as 2060 ng·h/mL. Moreover, in series [2] (both sexes, rat, compound 16c in plasma after compound 16c IV 3 mg/kg, Wistar rats, read-out: Cmax (peak concentration in plasma)), the Cmax is 1620 ng/mL. Further, the half-life in series [2] (both sexes, rat, compound 16c in plasma after compound 16c IV 3 mg/kg, Wistar rats, read-out: t1/2 (half life of drug in plasma) (converted)) was 1.5 h. In series [3], this compound returned a concentration at 0.25 h of 522 ng/g, a concentration at 0.75 h of 662 ng/g, a concentration at 8 h of 584 ng/g and a concentration at 24 h of 50.9 ng/g. The “Conversion of prodrug in vivo” value in series [3] is given as “converted to compound 9c in liver”.
For the compound `O=c1ccn(COP(=O)(O)O)c2c1ccc1cc(P3(=O)OCC[C@@H](c4cccc(Cl)c4)O3)cnc12` (stereo partly drawn) [Compound 27, (3-(4S-4-(3-chlorophenyl)-1,3,2-dioxaphosphinan-2-one-2-yl)-1,10-phenanthrolin-7-one)-10(7H)-methyl phosphoric acid], the ALT in serum in series [4] (BDL rats, 30 mg/kg PO once per day, 2 weeks, MODEL 144.4 ± 15.94, SHAM 67.1 ± 5.45) is 74.4 ± 17.82 IU/L. Moreover, in series [4] (BDL rats, 30 mg/kg PO once per day, 2 weeks, MODEL 207.2 ± 30.96, SHAM 67.7 ± 4.67), the AST in serum is 87.2 ± 12.51 IU/L. For the same compound, the “H&E staining of rat liver” value in series [4] (BDL, PO 30 mpk, 2 weeks, FIG. 5) is given as “varies the pathological changes of hepatic tissue”. The “ALT and AST of the serium and liver homogenate versus model group” value in series [4] (after 14 days of administration, P<0.01) is listed as “decreased significantly”. In series [4] (liver homogenate, BDL rats, 30 mg/kg PO once per day, 2 weeks, MODEL 136.8 ± 16.48), the ALT in liver turned out to be 76.4 ± 11.35 IU/L. This compound gave an AST in liver in series [4] (liver homogenate, BDL rats, 30 mg/kg PO once per day, 2 weeks, MODEL 198.75 ± 27.70) of 91.42 ± 8.79 IU/L. Also, the “Detection of prodrug 27 in plasma” value in series [2] (LC-MS/MS, after PO dosing 39 mg/kg) is listed as “not detected”. The “Conversion of prodrug in vivo” value in series [3] is listed as “converted to compound 16c in rat”.
With `O=P(O)(O)c1cnc2c(ccc3c(O)ccnc32)c1` [Compound 9c, 7-hydroxy-1,10-phenanthrolin-3-yl phosphonic acid], in series [3], the concentration at 0.25 h turned out to be 16.1 ng/g, the concentration at 0.75 h came to 64.2 ng/g, the concentration at 8 h amounted to 44.7 ng/g and the concentration at 24 h came out at 3.55 ng/g. Further, on human P4H enzyme, the negative-log IC50 (pIC50) (commonly −log10 of the IC50, conventionally taken in molar units) is 5.09.
In the case of `O=C(O)c1c[nH]c2c(ccc3cccnc32)c1=O` [FG-041, 1,4-dihydrophenanthrol-4-one-3-carboxylic acid], the “myocardial infarction in animal experiment” value in the series on myocardial infarction was “prevent myocardial infarction”.

Source of the values: US10072035B2, “Phenanthroline phosphonic acid derivative and preparation method therefor and application thereof” (Guangzhou Beryl Therapeutics, Inc, priority 2014, dated 2018).
